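Following 48 hours of exposure in 96-well plates, responses at five concentrations were used to interpolate endpoints linearly. TGI: total growth inhibition.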 *1 amine or outer side, *2 acyl side, *3 side chain or, on linkers, in order; H or OH if unused. Where a SMILES comes first, the peptide text is derived from it. Bridges are numbered along the chain shown (N, C = ends). Roman numbers before positions name the chains, in order. [ ]: non-standard residue; d: D form. ξ: configuration not given here. X54 = N=C(N)NCCC[C@@H](NC(=N)CCCCCCC(=N)N[C@H](CCCNC(=N)N)C(=O)[*:2])C(=O)[*:1]; dIgl = N[C@@H](C(=O)O)C1Cc2ccccc2C1; Hyp = O=C(O)[C@@H]1C[C@@H](O)CN1; ξIgl = NC(C(=O)O)C1Cc2ccccc2C1; ξOic = O=C(O)C1CC2CCCCC2N1; ξR = N=C(N)NCCCC(N)C(=O)O; ξP = O=C(O)C1CCCN1; ξS = NC(CO)C(=O)O Bounds are passed on as bounds.

From PubChem BioAssay (NCI) come the findings set out here.

Some test systems named below: HCT-116 colon; PC-3 prostate; DU-145 prostate; UACC-62 melanoma; SN12C renal; NCI-H23 lung; LOX IMVI melanoma; HOP-62 NSCLC; OVCAR-8 ovarian; BT-549 breast.
Common to all, as to experiment: NCI anticancer screen, dose series, 48 h

As for `N#Cc1c(N)oc(-c2ccc([N+](=O)[O-])cc2)c1C#N`, the TGI in the experiment with HCT-116 colon is > 100 µM; in the experiment with PC-3 prostate, 56.9 µM; with DU-145 prostate it was 59.3 µM; in the experiment with UACC-62 melanoma, > 100 µM; with SN12C renal it was 52.1 µM; in the experiment with NCI-H23 lung it was 57.2 µM. The TGI in the experiment on LOX IMVI melanoma is > 100 µM; in the experiment on HOP-62 NSCLC it was 73.5 µM; in the experiment with OVCAR-8 ovarian, 52.2 µM.

On to `COC1=C[C@]2(CCC(=O)O2)[C@@H]2Cc3ccccc3[C@H](O)[C@@H]2C1=O`, for which the TGI with HCT-116 colon is > 100 µM; in the experiment on PC-3 prostate it was > 100 µM; in the experiment with UACC-62 melanoma, 65.1 µM; in the experiment on SN12C renal it was > 100 µM; with NCI-H23 lung, > 100 µM; in the experiment on LOX IMVI melanoma it was 87.3 µM. For the same compound, the TGI in the experiment with HOP-62 NSCLC, in the experiment on OVCAR-8 ovarian and in the experiment with BT-549 breast was > 100 µM in each case.

For the compound `N=C(N)NCCCC(NC(=O)C1CC2CCCCC2N1C(=O)[C@H](NC(=O)C(CO)NC(=O)C(NC(=O)CNC(=O)[C@@H]1C[C@@H](O)CN1C(=O)C1CCCN1C(=O)C(CCCNC(=N)N)NC(=O)[C@@H](CCCNC(=N)N)NC(=N)CCCCCCC(=N)N[C@H](CCCNC(=N)N)C(=O)NC(CCCNC(=N)N)C(=O)N1CCCC1C(=O)N1C[C@H](O)C[C@H]1C(=O)NCC(=O)NC(C(=O)NC(CO)C(=O)N[C@@H](C(=O)N1C(C(=O)NC(CCCNC(=N)N)C(=O)O)CC2CCCCC21)C1Cc2ccccc2C1)C1Cc2ccccc2C1)C1Cc2ccccc2C1)C1Cc2ccccc2C1)C(=O)O` (some centres undefined) (I: [ξR][ξP][Hyp]G[ξIgl][ξS][dIgl][ξOic][ξR]-OH / II: [ξR][ξP][Hyp]G[ξIgl][ξS][dIgl][ξOic][ξR]-OH; linker I:N-II:N via X54), the TGI with HCT-116 colon is > 10 µM; with PC-3 prostate, 3.59 µM; with DU-145 prostate it was 3.06 µM; in the experiment with UACC-62 melanoma, 3.72 µM; in the experiment with SN12C renal, 4.16 µM; in the experiment on NCI-H23 lung it was 4.17 µM. Further, the TGI was 4.94 µM in the experiment with LOX IMVI melanoma and 5.64 µM with HOP-62 NSCLC.

For the compound `Fc1ccc(-c2sc(-c3ccsc3)cc2Cc2ccsc2)cc1`, the TGI with PC-3 prostate, with DU-145 prostate, in the experiment with UACC-62 melanoma, in the experiment on SN12C renal, in the experiment on NCI-H23 lung and in the experiment with LOX IMVI melanoma was > 10 µM in each case. The TGI with HOP-62 NSCLC and in the experiment on OVCAR-8 ovarian was > 10 µM throughout.

In the case of `CC1(C)OC[C@H](C(=N)OCc2ccccc2)O1`, the TGI in the experiment on HCT-116 colon, with UACC-62 melanoma, in the experiment with SN12C renal, in the experiment on NCI-H23 lung, with HOP-62 NSCLC and with OVCAR-8 ovarian was > 100 µM throughout.

With `CC(C)=CC1C(C(=O)Oc2ccccc2C(C)C)C1(C)C` (centres undefined), the TGI was 50.9 µM in the experiment with HCT-116 colon; > 100 µM in the experiment with DU-145 prostate; > 100 µM in the experiment on UACC-62 melanoma; 40.1 µM in the experiment with SN12C renal; 65.4 µM in the experiment with NCI-H23 lung; 33.4 µM in the experiment with LOX IMVI melanoma. Moreover, the TGI was 85.5 µM in the experiment on HOP-62 NSCLC, > 100 µM in the experiment with OVCAR-8 ovarian and > 100 µM in the experiment with BT-549 breast.

With `CSc1cc(Cl)c(C)cc1S(=O)(=O)NC(=O)NNc1ccc(F)cc1`, the TGI in the experiment with HCT-116 colon, with PC-3 prostate, in the experiment on DU-145 prostate, in the experiment on SN12C renal, with LOX IMVI melanoma and with HOP-62 NSCLC was > 100 µM throughout. For the same compound, the TGI with OVCAR-8 ovarian is > 100 µM.

In the case of `COc1ccccc1NC(=S)N=Nc1c(O)[nH]c2ccccc12`, the TGI in the experiment with HCT-116 colon was > 100 µM; in the experiment with PC-3 prostate, > 100 µM; in the experiment on DU-145 prostate, 13.7 µM; with UACC-62 melanoma, > 100 µM; with SN12C renal it was > 100 µM; with NCI-H23 lung, > 100 µM. The TGI in the experiment on LOX IMVI melanoma, with HOP-62 NSCLC and in the experiment with OVCAR-8 ovarian was > 100 µM throughout.

Take `CC(=O)O[C@H]1C(=O)[C@@]2(C)[C@H]([C@H](OC(=O)c3ccccc3)[C@]3(O)C[C@H](OC(=O)[C@H](O)[C@@H](NC(=O)c4ccccc4)c4ccc5ccccc5c4)C(C)=C1C3(C)C)[C@]1(OC(C)=O)CO[C@@H]1C[C@@H]2O`: the TGI was 0.237 µM in the experiment on HCT-116 colon; > 50 µM in the experiment with PC-3 prostate; 12.7 µM with UACC-62 melanoma; 17.2 µM with SN12C renal; > 45.4 µM in the experiment with NCI-H23 lung; 6.59 µM in the experiment with LOX IMVI melanoma. Also, the TGI in the experiment on HOP-62 NSCLC turned out to be 0.362 µM; in the experiment with OVCAR-8 ovarian, 25.8 µM.

As to `CC[C@@]1(O)C[C@H](OC2CC(N(C)C)C(O)C(C)O2)c2c(cc3c(c2O)C(=O)c2c(O)ccc(O)c2C3=O)[C@H]1C(=O)OC` (some centres undefined), the TGI in the experiment with HCT-116 colon is 0.829 µM; with UACC-62 melanoma, 0.252 µM; in the experiment on SN12C renal, 1.47 µM; in the experiment on NCI-H23 lung, 0.599 µM; with LOX IMVI melanoma it was 0.772 µM; with HOP-62 NSCLC it was 0.672 µM. In the experiment with OVCAR-8 ovarian, this compound displayed a TGI of 0.643 µM.

For the compound `Nc1nc(Cl)cc(OCC2(CO)CCCC2)n1`, the TGI in the experiment on HCT-116 colon, in the experiment with PC-3 prostate, in the experiment on DU-145 prostate, in the experiment on SN12C renal, in the experiment on NCI-H23 lung and in the experiment on LOX IMVI melanoma was > 100 µM each time. Besides, the TGI with HOP-62 NSCLC and in the experiment with OVCAR-8 ovarian was > 100 µM in each case.

As for `CC1=NN(C(=O)Cc2ccccc2)C(=O)/C1=C\c1ccc([N+](=O)[O-])cc1`, the TGI in the experiment on HCT-116 colon, in the experiment on UACC-62 melanoma, in the experiment on SN12C renal, in the experiment on NCI-H23 lung, in the experiment with LOX IMVI melanoma and in the experiment with HOP-62 NSCLC was > 100 µM in each case. In addition, in the experiment with OVCAR-8 ovarian, the TGI was > 100 µM.

Regarding `CN(C)CCNC(=O)c1cccc2ccc(-c3ccc(Br)cc3)nc12`, the TGI is 5.13 µM with HCT-116 colon; 3.6 µM with UACC-62 melanoma; 13.5 µM in the experiment on SN12C renal; 13.6 µM in the experiment with NCI-H23 lung; 4.82 µM in the experiment with LOX IMVI melanoma; 6.09 µM in the experiment on HOP-62 NSCLC. Moreover, the TGI in the experiment with OVCAR-8 ovarian came out at 4.76 µM.

On to `CCC12CCCN(Cc3ccccc3)C1c1c(n(C)c3ccccc13)C(CO)C2` (centres undefined), for which the TGI was determined as 53.6 µM in the experiment with HCT-116 colon; 115 µM in the experiment with UACC-62 melanoma; 81.2 µM in the experiment on SN12C renal; 158 µM in the experiment on NCI-H23 lung; 82 µM in the experiment on LOX IMVI melanoma; 73.6 µM in the experiment on HOP-62 NSCLC. Also, the TGI in the experiment with OVCAR-8 ovarian amounted to 186 µM.
